Assay results: paper PMC6153520, “Proteasome inhibition and mechanism of resistance to a synthetic, library-based hexapeptide” (Investigational New Drugs, 2018)
Where two headings read alike, the source gives them in different places. One block for each molecule: values may come before it. Where a SMILES comes first, the peptide text is derived from it. The star is where a group is joined. Cbz = O=C(OCc1ccccc1)*; NHBn = c1ccc(CN*)cc1; OBn = c1ccc(CO*)cc1; Bn = c1ccc(C*)cc1; OtBu = CC(C)(C)O*

What was measured:
[1] = target: T1, chymotrypsin-like proteasome activity (Homo sapiens, UniProt P28074); assay: Proteasome-Glo cell-based assay in intact THP1 cells; conditions: 1 h exposure, mean of 3 experiments ± S.D., read-out: IC50, inhibition of chymotrypsin-like proteasome activity
T1 construct: chymotrypsin-like proteasome activity in intact THP1 cells after 1 h exposure; endogenous in cells; host or cells: THP1 (wild type)

proteasome β-subunits = assay: Proteasome affinity labelling and recovery in H929 cells; format: cell-based, human; conditions: 5 μM MG132 (1 h) or 20 nM bortezomib (1 h)
THP1/WT cells [2] = assay: Apoptosis assay (Annexin-V/7-AAD flow cytometry); format: cell-based, human; conditions: 24 h exposure
Method: (§1) Induction of apoptosis was analyzed by flow cytometry using APOPTEST™-FITC A700 (VPS Diagnostics, Hoeven, the Netherlands) according to the instructions of the manufacturer. In short, induction of apoptosis was determined after 24 h’ drug exposure. One million cells were harvested and washed 3 times with ice-cold PBS. The cell pellet was incubated for 30 min with 7-Amino-actinomycin D (7-AAD) on ice followed by incubation with Annexin-V according to the instructions of the manufacturer. Annexin-V (early apoptosis) and 7-AAD (late apoptosis) staining was measured by flow cytometry (Beckton & Dickinson, FACScalibur) and analysed using FCSexpress V3 software (Denovo software, Thornhill, Canada).

THP1/BTZ200 cells = assay: Apoptosis assay (Annexin-V/7-AAD flow cytometry); format: cell-based, human; conditions: 24 h, 4A6 over 0–25 μM
Method: as §1

THP1/WT [3] = format: cell-based, human; conditions: 72 h
Method: Human monocytic/macrophage THP1 cells (ATTC, Manassas, USA) were cultured in RPMI-1640 medium supplemented with 5% fetal calf serum, 20 mM HEPES, 2 mM glutamine and 100 μg/ml penicillin/ streptomycin at 5% CO2 and 37 °C. Cell cultures were seeded at a density of 3 × 10^5 cells/ml and refreshed twice weekly. […] Some specific experiments also included THP1/BTZ100 cells that were cultured in the absence of BTZ for 6 months (further designated as THP1/BTZ (−100) cells). Mouse thymoma EL4 and human multiple myeloma H929 cells were cultured in RPMI-1640 medium supplemented with 8% fetal calf serum and 100 μg/ml penicillin/streptomycin at 5% CO2 and 37 °C.
(§2) Evaluation of drug sensitivity was carried out as described before. Cells were seeded at an initial density of 1.25 × 10^5 cells/ml in individual wells of a 24-well plate containing up to 50 μl of drug solutions. Inhibition of cell growth was determined after 72 h of incubation at 37 °C by determining the number of viable cells […] using trypan blue exclusion. The drug concentration required to inhibit cell growth by 50% compared to untreated controls was defined as the IC50.

THP1/BTZ200 = conditions: relative to THP1/WT; ref Oerlemans et al. [46]; cited from earlier work
CCRF-CEM = assay: NCI60 tumor cell line screen; format: cell-based; conditions: Homo sapiens, Leukemia, 48 h drug exposure, read-out: LOG10 GI50
THP1/BTZ100 = conditions: relative to THP1/WT; ref Oerlemans et al. [46]; cited from earlier work
HS 578T = assay: NCI60 tumor cell line screen; format: cell-based; conditions: Homo sapiens, Breast, 48 h drug exposure, read-out: LOG10 GI50 (converted)
THP1/WT cells [4] = assay: Western blot, accumulation of ubiquitinated proteins; format: cell-based, human; conditions: 24 h exposure
Method: Western blot analysis to determine protein levels of (i) β1, β2 and β5 proteasome subunits and (ii) the accumulation of ubiquitinated proteins after treatment with 4A6 was performed essentially as described previously. Cells were harvested in the mid-log phase of growth and washed 3 times with ice-cold buffered saline pH 7.4. Total cell lysates of 5 × 10^6 cells were prepared by resuspension in 500 μl lysis buffer containing: 50 mM Tris-HCl (pH 7.6), 5 mM dithiotreitol, 20 μl PIC (Protease Inhibitor Cocktail; 1 tablet/ml H2O), 20% glycerol and 0.5% NP-40. The suspension was sonicated (MSE sonicator, amplitude 7, for 3 × 5 s with 20 s time intervals at 4 °C) and centrifuged in an Eppendorf micro centrifuge (5 min, 12,000 rpm, 4 °C). Protein content of the supernatant was determined by the Bio-Rad protein assay. 20–30 μg of total cell lysates were fractionated on a 10% polyacrylamide gel containing SDS and transferred onto a PVDF membrane. The membranes were pre-incubated overnight at 4 °C in blocking buffer (5% Bio-Rad Blocker in TBS-T; 10 mM Tris-HCl, pH 8.0, 0.15 M NaCl, 0.1% Tween-20) to prevent non-specific antibody binding. After blocking, the membranes were incubated for 1 h at room temperature with primary antibodies for proteasome subunit β1 (1:1000, PW8140), β2 (1:1000, PW8145) and β5 (1:1000, PW8895) or ubiquitin (1:1000, Santa-Cruz, SC-8017). An antibody to α-tubulin was used (1:1000, Santa Cruz, sc-8035) to check and normalize for any loading differences. After 3 washing steps with TBS-T, the membranes were incubated for 1 h with HRP-labelled donkey-anti-rabbit (1:6000, Amersham, UK) or goat-anti-mouse (1:6000, Dako, Glostrup, Denmark) as secondary antibody. Detection of antibody binding was followed by chemoluminescence using Supersignal (Pierce Biotechnology, Rockford, USA) according to the manufacturers’ instructions. […] The signal intensity was determined densitometrically using Quantity One software (Bio-Rad) and was expressed relative to the intensity of the α-tubulin signal.

NCI-H226 = assay: NCI60 tumor cell line screen; format: cell-based; conditions: Homo sapiens, NSC Lung, 48 h drug exposure, read-out: LOG10 GI50 (converted)
K-562 = assay: NCI60 tumor cell line screen; format: cell-based; conditions: Homo sapiens, K562, Leukemia, 48 h drug exposure, read-out: LOG10 GI50 (converted)
A549/ATCC = assay: NCI60 tumor cell line screen; format: cell-based; conditions: Homo sapiens, NSC Lung, 48 h drug exposure, read-out: LOG10 GI50 (converted)
THP1 cells = assay: Growth inhibition with or without Ruthenium Red; format: cell-based, human; conditions: 72 h, with or without 25 μM Ruthenium Red
Method: as §2

SNB-19 = assay: NCI60 tumor cell line screen; format: cell-based; conditions: Homo sapiens, CNS, 48 h drug exposure, read-out: LOG10 GI50 (converted)
HT29 = assay: NCI60 tumor cell line screen; format: cell-based; conditions: Homo sapiens, HT-29, Colon, 48 h drug exposure, read-out: LOG10 GI50 (converted)
THP1/WT [5] = test system: THP1/WT; design: method as in Oerlemans et al. [46]; conditions: ref Oerlemans et al. [46], cited from earlier work
SNB-75 = assay: NCI60 tumor cell line screen; format: cell-based; conditions: Homo sapiens, CNS, 48 h drug exposure, read-out: LOG10 GI50 (converted)
SK-MEL-5 = assay: NCI60 tumor cell line screen; format: cell-based; conditions: Homo sapiens, Melanoma, 48 h drug exposure, read-out: LOG10 GI50 (converted)
SK-OV-3 = assay: NCI60 tumor cell line screen; format: cell-based; conditions: Homo sapiens, Ovarian, 48 h drug exposure, read-out: LOG10 GI50 (converted)
THP1/BTZ50 = conditions: relative to THP1/WT; ref Oerlemans et al. [46]; cited from earlier work
COLO 205 = assay: NCI60 tumor cell line screen; format: cell-based; conditions: Homo sapiens, Colon, 48 h drug exposure, read-out: LOG10 GI50 (converted)
[6] = test system: NCI60 tumor cell line panel; assay: NCI60 panel COMPARE analysis; format: cell-based, human; conditions: mean log10GI50, 2 days of drug exposure
DU-145 = assay: NCI60 tumor cell line screen; format: cell-based; conditions: Homo sapiens, Prostate, 48 h drug exposure, read-out: LOG10 GI50 (converted)
[7] = test system: β5 subunit of the proteasome; design: method as in PMID 16286248, PMID 16455650; conditions: ref [15], [21]; read-out: IC50, proteasome inhibition; cited from earlier work
proteasome = assay: Proteasome inhibitory effect of cleavage product (data not shown)
[8] = Cell growth inhibitory potential of cleavage product (data not shown); format: cell-based

- IC50 [1]: 490 ± 120 nM
Molecule: 4A6-dimer: dimer form of 4A6, contains the same amino acid sequence as 4A6 (THTXEG; The dimer linkage, and any protecti)

Molecule: CC(C)C[C@@H](C=O)NC(=O)[C@H](CC(C)C)NC(=O)[C@H](CC(C)C)NC(=O)OCc1ccccc1 [MG132, Z-Leu-Leu-Leucinal] (Cbz-Leu-Leu-Leu-aldehyde)
- inhibition of β-subunit activity probing (proteasome β-subunits): blocked activity probing of all β-subunits

Molecule: COc1cc([C@@H]2c3cc4c(cc3[C@@H](O[C@@H]3O[C@@H]5CO[C@@H](C)O[C@H]5[C@H](O)[C@H]3O)[C@H]3COC(=O)[C@H]23)OCO4)cc(OC)c1O [etoposide, reference compound]
- induction of apoptosis (THP1/WT cells [2]): equally effective in inducing apoptosis
- induction of apoptosis (THP1/BTZ200 cells): equally effective in inducing apoptosis

- IC50 (THP1/WT [3]): 3900 ± 800 nM
Molecule: CC(=O)N[C@H](C(=O)N[C@@H](CCC(=O)OC(C)(C)C)C(=O)N[C@@H](CCC(=O)OCc1ccccc1)C(=O)N[C@@H](CC(=O)OC(C)(C)C)C(=O)N[C@@H](CCC(=O)OC(C)(C)C)C(=O)NCC(=O)NCc1ccccc1)[C@@H](C)OCc1ccccc1 [4E11, Ac-Thr(OBzl)-Glu(OtBu)-Glu(OBzl)-Asp(OtBu)-Glu(OtBu)-Gly-Bza] (Ac-T(Bn)E(OtBu)E(OBn)D(OtBu)E(OtBu)G-NHBn)

Molecule: CC(C)C[C@H](NC(=O)[C@H](Cc1ccccc1)NC(=O)c1cnccn1)B(O)O [Bortezomib, Pyrazylcarbonyl-Phe-Leu-boronate]
- [Resistance Factor] THP1/BTZ200 (THP1/BTZ200): 129
- GI50 (CCRF-CEM): 0.1 nM
- [Resistance Factor] THP1/BTZ100 (THP1/BTZ100): 79
- GI50 (HS 578T): 0.422 nM
- accumulation of ubiquitinated proteins (THP1/WT cells [4]): marked accumulation of ubiquitinated proteins
- GI50 (NCI-H226): 0.105 nM
- GI50 (K-562): 0.422 nM
- GI50 (A549/ATCC): 2.44 nM
- effect of Ruthenium Red on growth inhibitory activity (protection) (THP1 cells): marked abrogation
- GI50 (SNB-19): 0.724 nM
- inhibition of β-subunit activity probing (proteasome β-subunits): predominantly inhibited β5-subunit probing
- GI50 (HT29): 0.389 nM
- IC50 (THP1/WT [5]; growth inhibition): 0.0033 ± 0.0006 µM
- [Resistance Factor] THP1/WT (THP1/WT [5]; reference value in square brackets): 1
- GI50 (SNB-75): 1.95 nM
- GI50 (SK-MEL-5): 0.11 nM
- GI50 (SK-OV-3): 32.9 nM
- [Resistance Factor] THP1/BTZ50 (THP1/BTZ50): 45
- GI50 (COLO 205): 0.363 nM
- orders of magnitude more potent than 4A6 [6]: 2–3 orders of magnitude
- GI50 (DU-145): 0.891 nM
- IC50 [7]: 3 to 5 nM

Molecule: Ac-Thr(tBu)-His(Bzl)-Thr(Bzl)-Nle-OH
- proteasome inhibitory effect (proteasome): did not show any proteasome inhibitory effect
- cell growth inhibitory potential [8]: did not show any proteasome inhibitory effect or cell growth inhibitory potential
